Legend:
[1] = test system: PGRN polypeptide; assay: PGRN polypeptide levels in cell lysates and culture supernatants of treated M17 cells, Western blotting; assay type: cell-based, human; settings: M17 cells, ibuprofen 1 to 5 μM
Procedure: Cell cultures were maintained in standard cell culture media supplemented with 5% fetal bovine serum and 100 U/mL penicillin/streptomycin (Life Technologies, Karlsruhe, Germany). Cell cultures consisted of Chinese hamster ovary (CHO) cells; human HeLa cells (HeLa); BE(2)-M17, human neuroblastoma (M17); […] The following PPAR activators were dissolved in DMSO: ciglitazone (Calbiochem, San Diego, Calif.), fenofibrate (Sigma-Aldrich, Saint Louis, Mo.), clofibrate (Calbiochem), and L165041 (Calbiochem). Cells were cultured in serum-containing media and treated for 24 hours in serum-free media with a specific PPAR agonist. Curcumin (Sigma-Aldrich) and resveratrol (Sigma-Aldrich) were dissolved in DMSO. Cells were cultured in serum-containing media and treated for 24 hours in serum-free media with curcumin or resveratrol. Antibodies that were used included a monoclonal human progranulin antibody (Zymed, South San Francisco, Calif.) directed against full length progranulin polypeptide, a mouse progranulin antibody (R&D Systems, Minneapolis, Minn.) directed against full length progranulin polypeptide, and an anti-GAPDH antibody (Sigma-Aldrich). Cell cultures were treated with increasing concentrations of the PPARα activator clofibrate or with DMSO. Levels of PGRN polypeptide in culture supernatants and in cell lysates were analyzed using Western blotting. The levels of intracellular and secreted forms of PGRN polypeptide were compared in clofibrate treated M17 cell cultures and DMSO treated M17 cell cultures (FIG. 20).

[2] = test system: PGRN polypeptide; assay: PGRN polypeptide levels in cell lysates and culture supernatants of treated HeLa cells, Western blotting; assay type: cell-based, human; settings: 1.25 to 20 micromolar ibuprofen, 24 hours, vs DMSO
Procedure: Cell cultures were maintained in standard cell culture media supplemented with 5% fetal bovine serum and 100 U/mL penicillin/streptomycin (Life Technologies, Karlsruhe, Germany). Cell cultures consisted of Chinese hamster ovary (CHO) cells; human HeLa cells (HeLa); BE(2)-M17, human neuroblastoma (M17); N2A, mouse neuroblastoma; and human lymphoblasts.
The following NSAIDs were dissolved in the vehicle DMSO: ibuprofen (Biomol, Plymouth Meeting, Pa.), indomethacin (Biomol), diclofenac (Cayman Chemical, Ann Arbor, Mich.), naproxen (Cayman Chemical), and aspirin (ICN Biomedicals, Irvine, Calif.). Cells were cultured in serum-containing media and treated for 24 hours in serum-free media with a specific NSAID. NSAID toxicity was examined using a standard MTT-assay (3-(4,5-Dimethyl-2-thiazolylyl)-2,5-diphenyl-2H-tetrazolium Bromide). For cell toxicity studies, cells were treated with NSAIDS at concentrations up to 100 micromolar.
Antibodies that were used included a monoclonal human progranulin antibody (Zymed, South San Francisco, Calif.) directed against full length progranulin polypeptide, a mouse progranulin antibody (R&D Systems, Minneapolis, Minn.) directed against full length progranulin polypeptide, and an anti-GAPDH antibody (Sigma-Aldrich).
HeLa cell cultures (N=4 for all studies) were treated with various concentrations of NSAIDs, including ibuprofen, naproxen, indomethacin, meclofenamic acid, and acetylsalicylic acid for 24 hours in serum free media. Levels of PGRN polypeptide in culture supernatants and in cell lysates were analyzed using Western blotting.

[3] = test system: PGRN polypeptide; assay: PGRN polypeptide levels in treated N2A mouse neuroblastoma cells; assay type: cell-based; settings: N2A cells, ibuprofen 1 to 5 μM
Procedure: Cell cultures were maintained in standard cell culture media supplemented with 5% fetal bovine serum and 100 U/mL penicillin/streptomycin (Life Technologies, Karlsruhe, Germany). Cell cultures consisted of Chinese hamster ovary (CHO) cells; human HeLa cells (HeLa); BE(2)-M17, human neuroblastoma (M17); […] The following NSAIDs were dissolved in the vehicle DMSO: ibuprofen (Biomol, Plymouth Meeting, Pa.), indomethacin (Biomol), diclofenac (Cayman Chemical, Ann Arbor, Mich.), naproxen (Cayman Chemical), and aspirin (ICN Biomedicals, Irvine, Calif.). Cells were cultured in serum-containing media and treated for 24 hours in serum-free media with a specific NSAID. […] For cell toxicity studies, cells were treated with NSAIDS at concentrations up to 100 micromolar. The following PPAR activators were dissolved in DMSO: ciglitazone (Calbiochem, San Diego, Calif.), fenofibrate (Sigma-Aldrich, Saint Louis, Mo.), clofibrate (Calbiochem), and L165041 (Calbiochem). Cells were cultured in serum-containing media and treated for 24 hours in serum-free media with a specific PPAR agonist. […]

[4] = test system: GAPDH polypeptide; assay: GAPDH polypeptide expression in treated HeLa cells, Western blot; assay type: cell-based, human; settings: ibuprofen treatment
[5] = test system: PGRN polypeptide; assay: PGRN polypeptide expression in HeLa cells by immunohistochemistry; assay type: cell-based, human; settings: ibuprofen 2.5 μM for 24 hours, vs untreated
Procedure: Treated and untreated HeLa cells were analyzed for PGRN polypeptide expression using immunohistochemistry. […] Levels of PGRN polypeptide in cell culture supernatants and cell lysates of HeLa cells treated with various concentrations of ibuprofen were compared to corresponding PGRN polypeptide levels in HeLa cells treated with DMSO (FIG. 26).

[6] = target: T1, PPARγ (Homo sapiens, UniProt P37231); settings: highly selective agonist, commercial vendors; cited from earlier work
T1 sequence (P37231 1-505): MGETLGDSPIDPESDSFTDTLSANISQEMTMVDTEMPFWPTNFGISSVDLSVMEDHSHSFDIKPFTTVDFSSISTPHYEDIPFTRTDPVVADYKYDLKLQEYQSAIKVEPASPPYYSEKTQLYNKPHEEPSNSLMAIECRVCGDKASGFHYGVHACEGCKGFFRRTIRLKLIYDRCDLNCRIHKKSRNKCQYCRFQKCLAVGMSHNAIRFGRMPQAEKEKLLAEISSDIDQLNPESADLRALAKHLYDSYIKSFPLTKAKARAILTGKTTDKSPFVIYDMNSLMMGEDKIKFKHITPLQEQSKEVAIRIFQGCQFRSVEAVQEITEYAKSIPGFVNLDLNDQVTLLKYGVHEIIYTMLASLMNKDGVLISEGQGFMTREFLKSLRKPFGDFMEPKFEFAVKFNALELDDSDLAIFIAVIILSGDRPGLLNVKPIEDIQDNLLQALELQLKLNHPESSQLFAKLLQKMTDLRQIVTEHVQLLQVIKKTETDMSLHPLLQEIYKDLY

[7] = target: T2, PPARα (Homo sapiens, UniProt Q07869); settings: Leesnitzer et al.; cited from earlier work
T2 sequence (Q07869 1-468): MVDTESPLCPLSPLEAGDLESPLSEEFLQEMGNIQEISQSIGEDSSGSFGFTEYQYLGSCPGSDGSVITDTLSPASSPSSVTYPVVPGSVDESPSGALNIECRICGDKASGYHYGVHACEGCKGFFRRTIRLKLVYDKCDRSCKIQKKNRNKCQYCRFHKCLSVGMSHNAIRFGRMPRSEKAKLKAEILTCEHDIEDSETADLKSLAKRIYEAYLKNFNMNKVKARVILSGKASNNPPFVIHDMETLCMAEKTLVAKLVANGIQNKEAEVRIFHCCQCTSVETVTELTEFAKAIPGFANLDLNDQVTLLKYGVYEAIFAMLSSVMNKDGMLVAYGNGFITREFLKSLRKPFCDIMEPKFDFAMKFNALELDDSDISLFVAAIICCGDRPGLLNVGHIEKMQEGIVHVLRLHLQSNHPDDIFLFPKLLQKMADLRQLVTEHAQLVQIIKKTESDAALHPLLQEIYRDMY

[8] = target: T3, PPARδ (Homo sapiens, UniProt Q03181); settings: Leesnitzer et al.; cited from earlier work
T3 sequence (Q03181 1-441): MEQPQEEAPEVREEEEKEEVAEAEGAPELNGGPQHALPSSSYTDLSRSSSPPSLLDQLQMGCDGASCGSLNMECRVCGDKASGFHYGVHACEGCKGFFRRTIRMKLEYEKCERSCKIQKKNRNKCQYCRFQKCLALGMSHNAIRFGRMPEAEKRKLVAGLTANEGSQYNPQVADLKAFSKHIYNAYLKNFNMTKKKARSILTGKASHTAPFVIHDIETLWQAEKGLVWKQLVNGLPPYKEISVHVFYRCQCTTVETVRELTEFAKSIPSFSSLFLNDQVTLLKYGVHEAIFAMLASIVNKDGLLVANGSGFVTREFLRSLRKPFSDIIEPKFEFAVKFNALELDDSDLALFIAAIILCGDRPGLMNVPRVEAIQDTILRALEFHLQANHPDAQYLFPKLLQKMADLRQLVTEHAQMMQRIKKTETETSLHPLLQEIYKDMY

[9] = test system: PGRN mRNA; settings: myeloid cells, Ong et al.; cited from earlier work

## CC(C)Cc1ccc(C(C)C(=O)O)cc1 (stereo not drawn) [ibuprofen]
[1]
  increase in PGRN polypeptide expression: up to 600%
[2]
  increase in the level of intracellular PGRN polypeptide: approximately 150%
[3]
  increase in PGRN polypeptide expression: up to 600%
[4]
  effect on GAPDH polypeptide expression: No significant effect
[5]
  PGRN polypeptide expression by immunohistochemistry: increased PGRN polypeptide expression in the Golgi

## GW1929
[6]
  PPARγ agonist activity range: low nM range

## O=C(Nc1ccccc1)c1cc([N+](=O)[O-])ccc1Cl [GW9662, 2-Chloro-5-nitro-N-phenylbenzamide]
[7]
  block of PPARα receptors: low nM range
[8]
  block of PPARδ receptors: low micromolar range

## CC1=C(/C=C/C(C)=C/C=C/C(C)=C/C(=O)O)C(C)(C)CCC1 [all trans-retinoic acid]
[9]
  PGRN mRNA level: upregulation of PGRN mRNA

Reference: patent US9486541B2, “Detecting and treating dementia” (Mayo Foundation for Medical Education and Research, priority 2006, dated 2016)
